Converted amounts (≈) assume the structure as drawn.

A short description of data set [1]: Inhibition of recombinant mouse GALK1 using ATP as substrate incubated for 1 hr and measured by Kinase-Glo assay.
Data set [2] in a line: Stability of compound in rat microsomes assessed as half-life. Type of data set: ADME, Microsome.
Data set [3] can be described thus: Kinetic aqueous solubility of the compound. It is filed as physicochemical. The settings on record: buffer; read-out: Kinetic_solubility.

What is called IC50 is the midpoint of a concentration-inhibition curve. One may read the half-life as the time in which the quantity being followed falls by half. As for `COC(=O)c1ccccc1CNC(=O)C1=C(C)NC(Nc2nc3ccccc3o2)=NC1c1ccccc1Cl` (stereo not given), in data set [1] (read-out: IC50), the IC50 is 4.32 µM. Also, the half-life in data set [2] amounted to 1.74 min. The solubility kinetic in data set [3] is under 1 µg/mL.
Taken in the same sequence, the figures for `CC1=C(C(=O)NCc2cnn(C)c2)C(c2ccc(Cl)cc2Cl)N=C(Nc2nc3ccc(F)c(N)c3o2)N1` (stereo not given) were 1.93 µM, over 30 min and 5.9 µg/mL (≈ 10.9 µM).
On to `CCn1nc(C)c(CNC(=O)C2=C(C)NC(Nc3nc4ccc(F)c(N)c4o3)=NC2c2ccc(C)cc2Cl)c1F` (stereo not given), for which, in data set [1] (read-out: IC50), the 50% inhibitory concentration (IC50) is 2.17 µM. Moreover, in data set [2], the half-life came to 3.55 min. Besides, the solubility kinetic in data set [3] stood at 1.53 µg/mL (≈ 2.69 µM).
The like results for `CC1=C(C(=O)Nc2cccc(CN)c2)C(c2ccccc2Cl)N=C(Nc2nc3ccccc3o2)N1` (stereo not given) were, in that order, 6.85 µM, over 30 min and 37.5 µg/mL (≈ 77 µM).
The like results for `CC1=C(C(=O)Nc2ccccn2)C(c2ccccc2Cl)N=C(Nc2nc3cccc(N)c3o2)N1` (stereo not given) were, in that order, 19.3 µM, over 30 min and under 1 µg/mL.
Taken in the same sequence, the figures for `CC1=C(C(=O)Nc2cc(C(=O)O)ccc2Cl)C(c2ccccc2Cl)N=C(Nc2nc3ccc(F)cc3o2)N1` (stereo not given) were 19.3 µM, over 30 min and 54 µg/mL (≈ 97.4 µM).
In the case of `CCn1ncc(CNC(=O)C2=C(C)NC(Nc3nc4ccc(F)c(N)c4o3)=NC2c2ccc(C)cc2Cl)c1F` (stereo not given), in data set [1] (read-out: IC50), the IC50 worked out at 1.09 µM. In addition, in data set [2], the half-life was found to be 7.04 min. The solubility kinetic in data set [3] was under 1 µg/mL.
For the compound `CCn1cc(CNC(=O)C2=C(C)NC(Nc3nc4cccc(N)c4o3)=NC2c2ccc(F)cc2Cl)cn1` (stereo not given), the 50% inhibitory concentration (IC50) in data set [1] (read-out: IC50) was determined as 7.69 µM. For the same compound, the half-life in data set [2] turned out to be 18.8 min.
In the case of `COC(=O)Cc1nnc(NC(=O)C2=C(C)NC(Nc3nc4ccccc4o3)=NC2c2ccccc2Cl)s1` (stereo not given), the half-life in data set [2] was 8.09 min. Further, in data set [3], the solubility kinetic is under 1 µg/mL.
Turning to `CCn1cc(CNC(=O)C2=C(C)NC(Nc3nc4ccc(F)c(N)c4o3)=NC2c2ccc(Cl)cc2Cl)cn1` (stereo not given), the IC50 in data set [1] (read-out: IC50) was determined as 1.93 µM. For the same compound, the half-life in data set [2] is 6.79 min. For the same compound, the solubility kinetic in data set [3] is under 1 µg/mL.
The like results for `CC1=C(C(=O)NCc2cn(C)cn2)[C@H](c2ccccc2Cl)N=C(Nc2nc3ccccc3o2)N1` were, in that order, 4.32 µM, 5.62 min and 46.1 µg/mL (≈ 96.9 µM).
Taken in the same sequence, the figures for `CC1=C(C(=O)NCc2cnn(Cc3ccccc3)c2)C(c2ccc(C)cc2Cl)N=C(Nc2nc3ccc(F)cc3o2)N1` (stereo not given) were 5.44 µM, 2.74 min and under 1 µg/mL.
Regarding `CC1=C(C(=O)Nc2nncs2)C(c2ncccc2Cl)N=C(Nc2nc3ccccc3o2)N1` (stereo not given), in data set [1] (read-out: IC50), the IC50 is 19.3 µM. Besides, in data set [2], the half-life was over 30 min. Moreover, the solubility kinetic in data set [3] amounted to 10.6 µg/mL (≈ 22.7 µM).
The like results for `CC1=C(C(=O)Nc2cc(CO)ccn2)C(c2ccccc2Cl)N=C(Nc2nc3ccc(F)cc3o2)N1` (stereo not given) were, in that order, 10.9 µM, over 30 min and under 1 µg/mL.
Take `CCn1cc(CNC(=O)C2=C(C)NC(Nc3nc4cccc(N)c4o3)=NC2c2ccc(Cl)cc2Cl)cn1` (stereo not given): the IC50 in data set [1] (read-out: IC50) was 8.63 µM. Moreover, the half-life in data set [2] amounted to 14.1 min. For the same compound, the solubility kinetic in data set [3] stood at 4.6 µg/mL (≈ 8.53 µM).
The like results for `COC(=O)c1ccnc(NC(=O)C2=C(C)NC(Nc3nc4ccccc4o3)=N[C@H]2c2ccccc2Cl)c1` were, in that order, 6.85 µM, 20 min and under 1 µg/mL.
Taken in the same sequence, the figures for `CC1=C(C(=O)Nc2ccc(CO)cn2)C(c2ccccc2Cl)N=C(Nc2nc3ccc(F)cc3o2)N1` (stereo not given) were 19.3 µM, over 30 min and under 1 µg/mL.
Taken in the same sequence, the figures for `CNC(=O)C1CC(=O)C2=C(C1)NC(Nc1nc3ccccc3o1)=NC2c1ccccc1Cl` (stereo not given) were 6.85 µM, over 30 min and under 1 µg/mL.
Regarding `CC1=C(C(=O)Nc2cc(C(=O)O)ccn2)C(c2ccc(N3CCOCC3)cc2Cl)N=C(Nc2nc3ccc(F)cc3o2)N1` (stereo not given), in data set [1] (read-out: IC50), the IC50 came to 3.85 µM. Besides, the half-life in data set [2] is over 30 min. Moreover, in data set [3], the solubility kinetic is over 89 µg/mL.
Taken in the same sequence, the figures for `CC1=C(C(=O)Nc2ccccn2)C(c2ccccc2Cl)N=C(Nc2nc3ccccc3o2)N1` (stereo not given) were 10.9 µM, over 30 min and under 1 µg/mL.
As to `COc1ccc([C@H]2N=C(Nc3nc4ccc(F)cc4o3)NC(C)=C2C(=O)Nc2cc(C(=O)O)ccn2)c(Cl)c1`, the half-maximal inhibitory concentration (IC50) in data set [1] (read-out: IC50) came out at 19.3 µM.
Consider `CC1=C(C(=O)Nc2cc(C(N)=O)ccn2)C(c2ccccc2Cl)N=C(Nc2nc3ccc(F)cc3o2)N1` (stereo not given), for which the IC50 in data set [1] (read-out: IC50) worked out at 19.3 µM. Moreover, in data set [2], the half-life is over 30 min. In addition, the solubility kinetic in data set [3] was determined as 2.4 µg/mL (≈ 4.62 µM).
Taken in the same sequence, the figures for `COc1ccc(Cl)c(C2N=C(Nc3nc4ccccc4o3)NC(C)=C2C(=O)Nc2nncs2)c1` (stereo not given) were 17.2 µM, over 30 min and under 1 µg/mL.
Taken in the same sequence, the figures for `CC1=C(C(=O)Nc2ccccc2F)C(c2ccccc2Cl)N=C(Nc2nc3ccccc3o2)N1` (stereo not given) were 9.68 µM, over 30 min and under 1 µg/mL.
The like results for `CC1=C(C(=O)NCc2cnn(C)c2)C(c2ccc(F)cc2Cl)N=C(Nc2nc3cccc(N)c3o2)N1` (stereo not given) were, in that order, 6.85 µM, 29.6 min and 49.6 µg/mL (≈ 97.5 µM).
With `CN(C)C(=O)C1CC(=O)C2=C(C1)NC(Nc1nc3ccccc3o1)=NC2c1ccccc1Cl` (stereo not given), in data set [1] (read-out: IC50), the IC50 was found to be 4.32 µM. In addition, the half-life in data set [2] is 20.8 min. The solubility kinetic in data set [3] was 10.8 µg/mL (≈ 23.4 µM).
Consider `CC1=C(C(=O)Nc2ccc(CO)nc2)C(c2ccccc2Cl)N=C(Nc2nc3ccccc3o2)N1` (stereo not given), for which the IC50 in data set [1] (read-out: IC50) turned out to be 7.69 µM. Besides, in data set [2], the half-life is over 30 min. Further, the solubility kinetic in data set [3] was under 1 µg/mL.
Taken in the same sequence, the figures for `COC(=O)c1ccc(CNC(=O)C2=C(C)NC(Nc3nc4ccccc4o3)=NC2c2ccccc2Cl)cc1` (stereo not given) were 8.63 µM, 8.49 min and under 1 µg/mL.
Taken in the same sequence, the figures for `CC1=C(C(=O)Nc2cc(N(C)C)ccn2)C(c2ccc(C)cc2Cl)N=C(Nc2nc3cccc(N)c3o2)N1` (stereo not given) were 15.3 µM, 11.7 min and 4.6 µg/mL (≈ 8.66 µM).
In the case of `CC1=C(C(=O)Nc2ccc(C(N)=O)cn2)C(c2ccccc2Cl)N=C(Nc2nc3ccc(F)cc3o2)N1` (stereo not given), the half-maximal inhibitory concentration (IC50) in data set [1] (read-out: IC50) is 6.85 µM.
As to `CC1=C(C(=O)Nc2cc(C(N)=O)ccn2)C(c2ccccc2Cl)N=C(Nc2nc3ccccc3o2)N1` (stereo not given), the IC50 in data set [1] (read-out: IC50) turned out to be 7.69 µM. In addition, in data set [2], the half-life is over 30 min. In addition, the solubility kinetic in data set [3] was under 1 µg/mL.
Taken in the same sequence, the figures for `CC1=C(C(=O)NCc2cccc(CO)c2)C(c2ccccc2Cl)N=C(Nc2nc3ccccc3o2)N1` (stereo not given) were 12.2 µM, 6.57 min and under 1 µg/mL.
The like results for `O=C(Nc1nncs1)C1=C(c2cnccn2)NC(Nc2nc3ccccc3o2)=NC1c1ccccc1Cl` (stereo not given) were, in that order, 21.7 µM, over 30 min and 2.1 µg/mL (≈ 3.96 µM).
As for `CC1=C(C(=O)Nc2nncs2)C(c2ncccc2Br)N=C(Nc2nc3ccccc3o2)N1` (stereo not given), the IC50 in data set [1] (read-out: IC50) stood at 6.85 µM. Further, the half-life in data set [2] was over 30 min. The solubility kinetic in data set [3] was found to be 3 µg/mL (≈ 5.87 µM).
As to `CC1=C(C(=O)Nc2cccc(CCO)c2)C(c2ccccc2Cl)N=C(Nc2nc3ccccc3o2)N1` (stereo not given), the half-life in data set [2] is 26.6 min.
Regarding `CC1=C(C(=O)Nc2nncs2)C(c2nn(C)cc2Cl)N=C(Nc2nc3ccccc3o2)N1` (stereo not given), the half-inhibitory concentration (IC50) in data set [1] (read-out: IC50) came out at 17.2 µM. Further, the half-life in data set [2] was over 30 min. In addition, the solubility kinetic in data set [3] worked out at 12.8 µg/mL (≈ 27.2 µM).
`CC1=C(C(=O)NCc2cnn(C)c2)C(c2ccc(Cl)cc2Cl)N=C(Nc2nc3cccc(N)c3o2)N1` (stereo not given): the IC50 in data set [1] (read-out: IC50) turned out to be 6.85 µM. In addition, the half-life in data set [2] is 17.8 min. Further, the solubility kinetic in data set [3] was 15.6 µg/mL (≈ 29.7 µM).
For `CC1=C(S(C)(=O)=O)C(c2ccccc2Cl)N=C(Nc2nc3ccccc3o2)N1` (stereo not given), in data set [1] (read-out: IC50), the 50% inhibitory concentration (IC50) was determined as 19.3 µM. For the same compound, the half-life in data set [2] is 9.37 min. Also, the solubility kinetic in data set [3] was under 1 µg/mL.
On to `CCn1cc(CNC(=O)C2=C(C)NC(Nc3nc4ccc(F)c(N)c4o3)=N[C@H]2c2ccc(C)cc2Cl)cn1`, for which the IC50 in data set [1] (read-out: IC50) worked out at 0.97 µM. Also, in data set [3], the solubility kinetic worked out at 22.1 µg/mL (≈ 41.1 µM).
As for `CC1=C(C(=O)Nc2nncs2)C(c2c(Br)cnn2C)N=C(Nc2nc3ccccc3o2)N1` (stereo not given), the IC50 result in data set [1] is given as “Not Active”. In data set [2], the half-life was over 30 min. The solubility kinetic in data set [3] was 38.7 µg/mL (≈ 75.2 µM).
Taken in the same sequence, the figures for `CC1=C(C(=O)NCc2cnn(C)c2)C(c2ccc(C)cc2Cl)N=C(Nc2nc3ncccc3o2)N1` (stereo not given) were “Not Active”, 6.15 min and over 49 µg/mL.
`CC1=C(C(=O)NCc2cn(C)cn2)C(c2ccccc2Cl)N=C(Nc2nc3ccc(F)cc3o2)N1` (stereo not given): the IC50 in data set [1] (read-out: IC50) was 19.3 µM.
Same read-out and setting: the result for `CC1=C(C(=O)Nc2cc(C(=O)O)ccc2C)C(c2ccccc2Cl)N=C(Nc2nc3ccc(F)cc3o2)N1` (stereo not given) reads 17.2 µM.
Take `CC1=C(C(=O)Nc2nnc(-c3cccnc3)s2)C(c2ccccc2Cl)N=C(Nc2nc3cc(N)ccc3o2)N1` (stereo not given): the half-life in data set [2] was over 30 min. The solubility kinetic in data set [3] turned out to be 1.8 µg/mL (≈ 3.23 µM).
Taken in the same sequence, the figures for `CC1=C(C(=O)Nc2cc(C(=O)O)ccn2)C(c2ccc(C)cc2Cl)N=C(Nc2ncc(-c3ccccc3)o2)N1` (stereo not given) were over 30 min and 42.2 µg/mL (≈ 77.7 µM).
The like results for `CC1=C(C(=O)Nc2ccc(CO)cc2)C(c2ccccc2Cl)N=C(Nc2nc3ccccc3o2)N1` (stereo not given) were, in that order, over 30 min and under 1 µg/mL.
Regarding `CC1=C(C(=O)Nc2nc(C(=O)O)cs2)C(c2ccccc2Cl)N=C(Nc2nc3ccccc3o2)N1` (stereo not given), the 50% inhibitory concentration (IC50) in data set [1] (read-out: IC50) was 19.3 µM.
Same read-out and setting: with `CC1=C(C(=O)Nc2ccc(-n3cncn3)cc2)C(c2ccccc2Cl)N=C(Nc2nc3ccccc3o2)N1` (stereo not given) the figure was 34.4 µM; with `COc1ccc([C@@H]2N=C(Nc3nc4ccc(F)cc4o3)NC(C)=C2C(=O)Nc2cc(C(=O)O)ccn2)c(Cl)c1`, 1.99 µM.
As for `CC1=C(C(=O)Nc2cncc(C(=O)O)c2)C(c2ccccc2Cl)N=C(Nc2nc3ccccc3o2)N1` (stereo not given), the half-life in data set [2] was over 30 min. In addition, the solubility kinetic in data set [3] turned out to be 60.3 µg/mL (≈ 120 µM).
Taken in the same sequence, the figures for `COC(=O)c1cncc(NC(=O)C2=C(C)NC(Nc3nc4ccccc4o3)=NC2c2ccccc2Cl)c1` (stereo not given) were over 30 min and under 1 µg/mL.
With `CC1=C(C(=O)Nc2ccc(-c3cn[nH]c3)cc2)C(c2ccccc2Cl)N=C(Nc2nc3ccccc3o2)N1` (stereo not given), in data set [1] (read-out: IC50), the IC50 was 12.2 µM.

Source of the values: ChEMBL document CHEMBL5050861 (2021).
